In patent US20140228303A1, “NOVEL SGLT INHIBITORS” (Panacea Biotec Ltd, priority 2011, published 2014):

Key:
mouse SGLT-2 = target: T1, mouse SGLT-2 (Mus musculus, UniProt Q923I7); assay: Methyl-α-D-[U-14C]Glucopyranoside uptake assay for SGLT-2 in CHO-K1 cells expressing mSGLT-2; assay type: cell-based; details: N.E. = Not Effective
T1 construct: Full-length mouse SGLT-2 cDNA was amplified from C57BL/6J mouse kidneys and introduced in the pcDNA3.1(+) expression vector; expressed in transfected cells
T1 sequence (Q923I7 1-670): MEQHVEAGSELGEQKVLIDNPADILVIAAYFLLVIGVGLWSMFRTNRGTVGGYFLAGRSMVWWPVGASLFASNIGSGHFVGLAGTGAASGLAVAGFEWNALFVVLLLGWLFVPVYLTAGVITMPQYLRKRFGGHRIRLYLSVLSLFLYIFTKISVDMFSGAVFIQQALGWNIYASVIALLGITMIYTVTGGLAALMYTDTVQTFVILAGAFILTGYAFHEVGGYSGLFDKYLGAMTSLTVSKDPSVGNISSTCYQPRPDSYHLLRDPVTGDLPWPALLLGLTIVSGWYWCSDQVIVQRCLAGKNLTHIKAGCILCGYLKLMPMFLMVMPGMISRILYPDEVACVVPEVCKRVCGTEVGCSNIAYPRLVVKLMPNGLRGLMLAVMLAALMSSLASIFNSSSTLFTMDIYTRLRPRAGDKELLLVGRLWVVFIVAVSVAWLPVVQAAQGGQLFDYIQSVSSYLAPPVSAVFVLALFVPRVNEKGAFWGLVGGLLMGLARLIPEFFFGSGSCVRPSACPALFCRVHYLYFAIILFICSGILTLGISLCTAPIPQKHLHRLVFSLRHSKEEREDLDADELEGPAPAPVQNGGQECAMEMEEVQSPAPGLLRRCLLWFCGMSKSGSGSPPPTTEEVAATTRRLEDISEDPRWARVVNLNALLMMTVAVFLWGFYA
Method: Preparation of Mouse SGLT-2 Expressing Cells
Full-length mouse SGLT-2 cDNA was amplified from C57BL/6J mouse kidneys and introduced in the pcDNA3.1(+) expression vector (Invitrogen, Inc.) and propagated in Escherichia coli strain DH5α using Luria-Bertani (LB) medium containing ampicillin. […] Stably transfected cells were selected using G418 antibiotic selection pressure.
Methyl-α-D-[U-^14C]Glucopyranoside Uptake Assay for SGLT-2
(§1) Cells expressing mSGLT-2 were seeded on 96-well tissue culture plates (Greiner, Inc.) in RPMI containing 10% FBS and 400 μg/mL G418 (0.8×10^5 cells per well in 200 μL medium) and incubated at 37° C. under 5% carbon dioxide for 24 h prior to the assay. Cells were washed twice with 200 μL of either sodium buffer (140 mM NaCl, 4.7 mM KCl, 2.2 mM CaCl2, 1.2 mM MgCl2, 10 mM Tris/Hepes, pH 7.4) or sodium-free buffer (137 mM N-methyl-glucamine, 4.7 mM KCl, 2.2 mM CaCl2, 1.2 mM MgCl2, 10 mM Tris/Hepes, pH 7.4). Reaction mixture containing test compounds at different concentrations diluted in assay buffer, 0.1 mM unlabeled Methyl-α-D-glucopyranoside and 1 μCi/well methyl-α-D[U-^14C]glucopyranoside (American Radiochemicals) was added per well of a 96-well plate and incubated at 37° C. for 1 h. Cells were washed thrice with 200 μL of wash buffer (140 mM NaCl, 4.7 mM KCl, 2.2 mM CaCl2, 1.2 mM MgCl2, 10 mM Tris/Hepes, pH 7.4 containing 500 μM phlorizin) and lysed using 50 μL of 0.25N NaOH. Methyl-α-D[U-^14C]glucopyranoside uptake was quantitated using a Top count scintillation counter (PerkinElmer, Inc.). All the test compounds were assayed in triplicates.

human SGLT-1 = target: T2, human SGLT-1 (Homo sapiens, UniProt P13866); assay: Methyl-α-D-[U-14C]Glucopyranoside uptake assay for SGLT-1 in CHO-K1 cells expressing hSGLT-1; assay type: cell-based; details: N.E. = Not Effective
T2 construct: Full-length human SGLT-1 cDNA in the pCMV-XL-Neo expression vector was obtained from Origene Corporation
T2 sequence (P13866 1-664): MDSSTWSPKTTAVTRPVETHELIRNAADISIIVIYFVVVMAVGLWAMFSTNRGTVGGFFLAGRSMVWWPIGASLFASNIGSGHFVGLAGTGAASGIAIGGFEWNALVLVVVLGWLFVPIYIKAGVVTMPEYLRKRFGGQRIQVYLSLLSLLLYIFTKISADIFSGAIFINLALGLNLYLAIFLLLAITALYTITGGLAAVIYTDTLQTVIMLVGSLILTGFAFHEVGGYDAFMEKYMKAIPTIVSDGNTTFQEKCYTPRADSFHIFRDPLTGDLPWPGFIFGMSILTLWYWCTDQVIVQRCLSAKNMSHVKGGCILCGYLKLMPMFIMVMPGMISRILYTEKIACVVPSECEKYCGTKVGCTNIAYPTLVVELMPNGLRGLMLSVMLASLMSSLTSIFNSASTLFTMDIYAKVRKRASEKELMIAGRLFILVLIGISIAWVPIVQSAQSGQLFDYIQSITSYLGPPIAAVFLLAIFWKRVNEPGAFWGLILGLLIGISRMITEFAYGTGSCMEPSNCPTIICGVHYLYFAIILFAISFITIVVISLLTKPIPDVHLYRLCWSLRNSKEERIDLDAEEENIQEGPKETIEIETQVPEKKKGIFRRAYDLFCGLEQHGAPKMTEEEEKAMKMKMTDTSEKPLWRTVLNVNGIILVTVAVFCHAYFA
Method: Preparation of Human SGLT-1 Expressing Cells
Full-length human SGLT-1 cDNA in the pCMV-XL-Neo expression vector was obtained from Origene Corporation and propagated in Escherichia coli strain DH5α using Luria-Bertani (LB) medium containing ampicillin. […] Stably transfected cells were selected using G418 antibiotic selection pressure.
Methyl-α-D-[U-^14C]Glucopyranoside Uptake Assay for SGLT-1
as §1, with “hSGLT-1” for “mSGLT-2”, “800 μg/ml” for “400 μg/mL”, “compounds” for “compounds at different concentrations”, “1” for “0.1”, “methyl-α-D-[U-^14C]glucopyranoside” for “methyl-α-D[U-^14C]glucopyranoside”, “Methyl-α-D-[U-^14C]glucopyranoside” for “Methyl-α-D[U-^14C]glucopyranoside”

C57BL/6J mice = assay: Estimation of urinary glucose in C57BL/6J mice; assay type: in vivo, mouse; details: urine collected over 24 h
Method: Estimation of Urinary Glucose in C57BL/6J Mice
C57BL/6J mice were fasted 4 h before drug treatment. Fasted mice were weighed and randomized into different groups based on their body weight (n=6). At time T0 test compounds and standard compounds suspended in 0.25% CMC or PEG 400 formulation, were administered to respective groups and kept in metabolic cages (6 mice/cage) after dosing. Animals were fed after drug administration and urine was collected over a period of 24 h. Urinary volume was measured and urinary glucose was estimated using Merckotest Glucose Reagent (Merck Specialities Pvt. Ltd., India).

Rats = assay: Estimation of urinary glucose in rat; assay type: in vivo; details: urine collected over 24 hrs
Method: Estimation of Urinary Glucose in Rat
Rats were fasted overnight (14 hrs) before drug treatment. Fasted rats were weighed and randomized into different groups based on their body weight (n=4). At time To test compounds and standard compound suspended in 0.25% C.M.C. or PEG 400 formulation were administered to respective groups and kept the animals in metabolic cages (1 rat/cage) after dosing. Animals were fed after drug administration and urine was collected over a period of 24 hrs. Urine volume was measured and urinary glucose was estimated using Merckotest Glucose Reagent (Merck Specialities Pvt. Ltd., India).

Substance | % inhibition of Methyl-α-D-[U-14C] Glucopyranoside uptake (CHO-K1 cells) mediated by SGLT-2 (mouse SGLT-2; 0.1 nM compound) | % inhibition of Methyl-α-D-[U-14C] Glucopyranoside uptake (CHO-K1 cells) mediated by SGLT-2 (mouse SGLT-2; 1 nM compound) | % inhibition of Methyl-α-D-[U-14C] Glucopyranoside uptake (CHO-K1 cells) mediated by SGLT-2 (mouse SGLT-2; 10 nM compound) | % inhibition of Methyl-α-D-[U-14C] Glucopyranoside uptake (CHO-K1 cells) mediated by SGLT-2 (mouse SGLT-2; 100 nM compound) | % inhibition of Methyl-α-D-[U-14C] Glucopyranoside uptake (CHO-K1 cells) mediated by SGLT-1 (human SGLT-1; 100 nM compound) | % inhibition of Methyl-α-D-[U-14C] Glucopyranoside uptake (CHO-K1 cells) mediated by SGLT-1 (human SGLT-1; 1 μM compound) | % inhibition of Methyl-α-D-[U-14C] Glucopyranoside uptake (CHO-K1 cells) mediated by SGLT-1 (human SGLT-1; 10 μM compound) | UGE in mice (in mg/g of feed consumed) at 3 mpk (C57BL/6J mice) | UGE in rat (in mg/g of feed consumed) at 3 mpk (Rats)
1-(4-(2-chloro-5-((1S,2S,3S,4R,5S)-2,3,4-trihydroxy-1-(hydroxymethyl)-6,8-dioxabicyclo[3.2.1]octan-5-yl)benzyl)phenyl)propan-1-one O-methyl oxime [Compound 3] | 26.42% | 26.10% | 59.52% | 93.34% | N.E. | N.E. | 63.64% | 81.9 mg/g of feed consumed | 67.4 mg/g of feed consumed
1-(4-(2-chloro-5-((2S,3R,4R,5S,6R)-3,4,5-trihydroxy-6-(hydroxymethyl)tetrahydro-2H-pyran-2-yl)benzyl)phenyl)ethanone O-methyl oxime [Compound 2] | 16.73% | 26.19% | 73.13% | 92.85% | N.E. | 33.10% | 78.87% | 88.9 mg/g of feed consumed | 68.6 mg/g of feed consumed
